Values after ≈ are worked out from the molar mass of the structure shown. Read-outs that look alike come from different tables or passages of the source. Where a SMILES comes first, the peptide text is derived from it.
How the values were obtained:
[1] = test system: E. faecalis (NCTC 12697) biofilm; format: cell-based, Enterococcus faecalis; settings: for MBIC50 / MBIC90: NCTC 12697, 24 h
Method: (§1) The anti-biofilm effects of all synthetic peptides were evaluated, which was described in our previous study. The organisms, including S. aureus (NCTC 10788), E. coli (NCTC 10418), MRSA (ATCC 12493), E. faecalis (NCTC 12697) and P. aeruginosa (ATCC 27853), were investigated in this study. Gram-positive bacteria were cultured in the TSB broth and Gram-negative bacteria were cultured in the LB broth. The anti-biofilm effects were determined based on the MBIC and MBEC of all the peptides. For the determination of MBIC, 5 × 10^5 CFU/mL bacterial cultures were incubated with the peptides concentrations (ranging from 1 µM to 512 µM) for 24 h. The sterilised medium and bacterial suspension without any treatment were used as the negative controls and positive controls, respectively. After incubation, wells were rinsed, fixed, stained, washed and dissolved with phosphate buffer saline (PBS), methanol (90%, v/v), crystal violet (0.1%, w/v), sterile deionised water and acetic acid (30%, v/v), respectively. The absorbance of dissolved stain was measured at a 595 nm using a Synergy HT plate reader (Biotech, Minneapolis, MN, USA).
(§2) For the MBEC assay, the peptide concentrations were prepared as above. The bacteria were cultured in the 96 well plate for 24–48 h, which allowed the formation of mature biofilm in the plate. Then, the bacterial culture was removed from the plate. The biofilm was further washed to remove the planktonic bacteria using PBS. Then, the fresh broth that contained different peptide concentrations was added in the plate for incubation of 24 h at 37 °C. After incubation, the plate was stained by crystal violet as mentioned above. The definition of MBIC can be given when compared to the negative control group (≥90%, MBIC90; ≥50%, MBIC50). The definition of the MBEC can be given when compared to the negative control group (≥90%, MBEC90; ≥50%, MBEC50).

E. coli = format: cell-based, Escherichia coli; settings: 24 h
Method: (§3) The minimal inhibitory concentrations (MICs) and minimum bactericidal concentrations (MBCs) were evaluated to determine the antimicrobial activity of synthetic peptides. The microorganisms employed in the study are two kinds of Gram-negative bacteria, Escherichia coli (NCTC 10418) and Pseudomonas aeruginosa (ATCC 27853), three kinds of Gram-positive bacteria, Staphylococcus aureus (NCTC 10788), Methicillin-resistant Staphylococcus aureus (MRSA, ATCC 12493) and Enterococcus faecalis (NCTC 12697) and a yeast, Candida albicans (NCPF 1467), as indicated previously. For antimicrobial assays, 5 × 10^5 CFU/mL of bacterial suspensions were incubated with the concentrations of the peptides (ranging from 1 µM to 512 µM) for 24 h at 37 °C. The sterilised broth medium was used as the positive control and the microorganism cultured in the medium only was treated as the negative control. […] The MBC results were defined as the lowest bactericidal concentrations of peptide. The antimicrobial activity of peptides was tested by monitoring the absorbance at 550 nm using an ELISA plate reader (Biolise BioTek EL808, Winooski, VT, USA).
(§4) The activity of peptides in the different environmental conditions including different concentrations of NaCl (50, 100 and 150 mM) and MgCl2 (0.5, 1 and 2 mM), pH (6, 7 and 8), temperature (50 °C, 75 °C and 100 °C) and 10% fetal bovine serum (FBS) solution, was evaluated using the broth microdilution assay as described in the antimicrobial activity assay. For the stability test of peptides in the presence of salt, pH and serum, these conditions were adjusted in the fresh medium that was further used to dilute the bacteria suspension. The peptides were also dissolved in such broth and mixed with the bacteria suspension in the 96 well plate. For the thermal stability test, the peptides were dissolved in the water and incubated at different temperature for 15 min before dosing in the plate. The sterilised broth with corresponding conditions was used as the positive controls, and the bacteria suspension without any treatment was used as the negative controls.

[2] = test system: S. aureus (NCTC 10788) biofilm; format: cell-based, Staphylococcus aureus; settings: for MBIC50 / MBIC90: NCTC 10788, 24 h
Method: as §1, §2

[3] = test system: Pseudomonas aeruginosa (ATCC 27853); format: cell-based; settings: for MBC: ATCC 27853, 18 h; for MIC: ATCC 27853, 24 h
Method: as §3, with “For antimicrobial assays, 5 × 10^5 CFU/mL of bacterial suspensions were incubated with the concentrations of the peptides (ranging from 1 µM to 512 µM) for 24 h at 37 °C.” left out

[4] = test system: Enterococcus faecalis (NCTC 12697); format: cell-based; settings: for MBC: NCTC 12697, 18 h; for MIC: NCTC 12697, 24 h
Method: as §3, with “For antimicrobial assays, 5 × 10^5 CFU/mL of bacterial suspensions were incubated with the concentrations of the peptides (ranging from 1 µM to 512 µM) for 24 h at 37 °C.” left out

[5] = test system: Methicillin-resistant Staphylococcus aureus (MRSA, ATCC 12493); format: cell-based; settings: for MBC: ATCC 12493, 18 h; for MIC: ATCC 12493, 24 h
Method: as §3, with “For antimicrobial assays, 5 × 10^5 CFU/mL of bacterial suspensions were incubated with the concentrations of the peptides (ranging from 1 µM to 512 µM) for 24 h at 37 °C.” left out

[6] = test system: Candida albicans (NCPF 1467); format: cell-based; settings: for MBC: NCPF 1467, 18 h; for MIC: NCPF 1467, 24 h
Method: as §3, with “For antimicrobial assays, 5 × 10^5 CFU/mL of bacterial suspensions were incubated with the concentrations of the peptides (ranging from 1 µM to 512 µM) for 24 h at 37 °C.” left out

[7] = test system: Escherichia coli (NCTC 10418); format: cell-based; settings: for MBC: NCTC 10418, 18 h; for MIC: NCTC 10418, 24 h
Method: as §3, with “For antimicrobial assays, 5 × 10^5 CFU/mL of bacterial suspensions were incubated with the concentrations of the peptides (ranging from 1 µM to 512 µM) for 24 h at 37 °C.” left out

[8] = test system: Staphylococcus aureus (NCTC 10788); format: cell-based; settings: for MBC: NCTC 10788, 18 h; for MIC: NCTC 10788, 24 h
Method: as §3, with “For antimicrobial assays, 5 × 10^5 CFU/mL of bacterial suspensions were incubated with the concentrations of the peptides (ranging from 1 µM to 512 µM) for 24 h at 37 °C.” left out

P. aeruginosa = format: cell-based, Pseudomonas aeruginosa; settings: 24 h
Method: as §3, §4

C. albicans = format: cell-based, Candida albicans; settings: 24 h
Method: as §3, §4

Row | SMILES | MBEC50 [1] | MBEC90 [1] | MBIC50 [1] | MBIC90 [1] | MIC (E. coli; pH 6) | MIC (E. coli; pH 7) | MIC (E. coli; pH 8) | MBEC50 [2] | MBEC90 [2] | MBIC50 [2] | MBIC90 [2] | MBC [3] | MIC [3] | MBC [4] | MIC [4] | MBC [5] | MIC [5] | MBC [6] | MIC [6] | MBC [7] | further results
1 | CC(C)C[C@H](NC(=O)[C@H](C)NC(=O)[C@H](Cc1c[nH]c2ccccc12)NC(=O)[C@H](CCCCN)NC(=O)[C@H](CC(C)C)NC(=O)[C@@H](N)Cc1ccccc1)C(=O)N[C@@H](CCCCN)C(=O)N[C@@H](Cc1c[nH]c2ccccc12)C(=O)N[C@@H](C)C(=O)N[C@@H](C)C(=O)N[C@@H](CCCCN)C(N)=O [OSe] (H-FLKWALKWAAK-NH2) | 128 µM | 128 µM | 64 µM | 64 µM | 32 µM (≈ 43.5 µg/mL) | 16 µM (≈ 21.8 µg/mL) | 16 µM (≈ 21.8 µg/mL) | 32 µM | 32 µM | 4 µM | 8 µM | 16 µM (≈ 21.8 µg/mL) | 16 µM (≈ 21.8 µg/mL) | 16 µM (≈ 21.8 µg/mL) | 16 µM (≈ 21.8 µg/mL) | 8 µM (≈ 10.9 µg/mL) | 8 µM (≈ 10.9 µg/mL) | 4 µM (≈ 5.44 µg/mL) | 4 µM (≈ 5.44 µg/mL) | 16 µM (≈ 21.8 µg/mL) | MIC [7]: 16 µM (≈ 21.8 µg/mL); MBC [8]: 4 µM (≈ 5.44 µg/mL); MIC [8]: 4 µM (≈ 5.44 µg/mL); MIC (P. aeruginosa; pH 6): 32 µM (≈ 43.5 µg/mL); MIC (P. aeruginosa; pH 7): 64 µM (≈ 87.1 µg/mL); MIC (P. aeruginosa; pH 8): 32 µM (≈ 43.5 µg/mL); MIC (C. albicans; pH 6): 16 µM (≈ 21.8 µg/mL); MIC (C. albicans; pH 7): 8 µM (≈ 10.9 µg/mL); MIC (C. albicans; pH 8): 4 µM (≈ 5.44 µg/mL)
2 | CC(C)C[C@H](NC(=O)[C@H](C)NC(=O)[C@H](Cc1c[nH]c2ccccc12)NC(=O)[C@H](CCCCN)NC(=O)[C@@H]1CCCN1C(=O)[C@H](CC(C)C)NC(=O)[C@@H](N)Cc1ccccc1)C(=O)N[C@@H](CCCCN)C(=O)N[C@@H](Cc1c[nH]c2ccccc12)C(=O)N[C@@H](C)C(=O)N[C@@H](C)C(=O)N[C@@H](CCCCN)C(N)=O [OSf] (H-FLPKWALKWAAK-NH2; N-terminus assumed) | 128 µM | 256 µM | 32 µM | 64 µM | 128 µM (≈ 187 µg/mL) | 8 µM (≈ 11.7 µg/mL) | 32 µM (≈ 46.7 µg/mL) | 32 µM | 128 µM | 8 µM | 32 µM | 64 µM (≈ 93.3 µg/mL) | 64 µM (≈ 93.3 µg/mL) | 64 µM (≈ 93.3 µg/mL) | 32 µM (≈ 46.7 µg/mL) | 64 µM (≈ 93.3 µg/mL) | 16 µM (≈ 23.3 µg/mL) | 16 µM (≈ 23.3 µg/mL) | 8 µM (≈ 11.7 µg/mL) | 16 µM (≈ 23.3 µg/mL) | MIC [7]: 8 µM (≈ 11.7 µg/mL); MBC [8]: 16 µM (≈ 23.3 µg/mL); MIC [8]: 8 µM (≈ 11.7 µg/mL); MIC (P. aeruginosa; pH 6): 128 µM (≈ 187 µg/mL); MIC (P. aeruginosa; pH 7): 256 µM (≈ 373 µg/mL); MIC (P. aeruginosa; pH 8): 64 µM (≈ 93.3 µg/mL); MIC (C. albicans; pH 6): 128 µM (≈ 187 µg/mL); MIC (C. albicans; pH 7): 8 µM (≈ 11.7 µg/mL); MIC (C. albicans; pH 8): 16 µM (≈ 23.3 µg/mL)
3 | CC(C)C[C@H](NC(=O)[C@H](C)NC(=O)[C@H](Cc1c[nH]c2ccccc12)NC(=O)[C@H](CCCCN)NC(=O)[C@H](CC(C)C)NC(=O)[C@@H](N)Cc1ccccc1)C(=O)N[C@@H](CCCCN)C(=O)N[C@H](C(=O)N[C@@H](C)C(=O)N[C@@H](C)C(=O)N[C@@H](CCCCN)C(N)=O)C(C)C [OSd] (H-FLKWALKVAAK-NH2) | 128 µM | 256 µM | 64 µM | 128 µM | 64 µM (≈ 81.5 µg/mL) | 64 µM (≈ 81.5 µg/mL) | 64 µM (≈ 81.5 µg/mL) | 32 µM | 128 µM | 8 µM | 32 µM | 64 µM (≈ 81.5 µg/mL) | 64 µM (≈ 81.5 µg/mL) | 64 µM (≈ 81.5 µg/mL) | 32 µM (≈ 40.8 µg/mL) | 32 µM (≈ 40.8 µg/mL) | 32 µM (≈ 40.8 µg/mL) | 32 µM (≈ 40.8 µg/mL) | 16 µM (≈ 20.4 µg/mL) | 32 µM (≈ 40.8 µg/mL) | MIC [7]: 32 µM (≈ 40.8 µg/mL); MBC [8]: 32 µM (≈ 40.8 µg/mL); MIC [8]: 16 µM (≈ 20.4 µg/mL); MIC (P. aeruginosa; pH 6): 128 µM (≈ 163 µg/mL); MIC (P. aeruginosa; pH 7): 128 µM (≈ 163 µg/mL); MIC (P. aeruginosa; pH 8): 64 µM (≈ 81.5 µg/mL); MIC (C. albicans; pH 6): 64 µM (≈ 81.5 µg/mL); MIC (C. albicans; pH 7): 32 µM (≈ 40.8 µg/mL); MIC (C. albicans; pH 8): 32 µM (≈ 40.8 µg/mL)
